Data as given in patent publication US9371337B2, “β-lactamase inhibitors” (The Regents of the University of California, priority 2011, dated 2016).
Converted amounts (≈) assume the structure as drawn.

Tests used:
[1] = test system: E. coli 144, AmpC-overproducing; assay: MIC of third-generation cephalosporins alone and with compounds (Table 6); type: cell-based, Escherichia coli; conditions: antibiotic alone
Procedure: (§1) The anti-resistance activity of inhibitors was investigated by the determination of the minimum inhibitory concentrations (MICs) of the β-lactam/inhibitor combination necessary to inhibit the growth of clinically-isolated bacteria resistant to third-generation cephalosporins via expression of class A or class C β-lactamases (Table 6).
(§2) Susceptibility testing was performed and interpreted following the guidelines of CLSI. (Clinical and Laboratory Standards Institute, Performance standards for antimicrobial susceptibility testing, 20th Informational Supplement, M100-S20 2010) The compounds were dissolved in 50% DMSO, and dilutions were performed using Muller-Hinton medium. An adequate final concentration was obtained to determine the minimum inhibitory concentrations (MICs). The concentration of DMSO was maintained below 5%. The inhibitors were tested for synergy with the third-generation β-lactams ceftazidime and cefotaxime against several clinical bacteria. The ratio of β-lactams to inhibitors was 1:4. Each value reported reflects the average of three independent experiments. […] The Friedman's test and the Wilcoxon signed rank test were used to compare MIC values. Statistical significance was established at p<0.05.
(§3) Table 6. MICs (μg/ml) of third-generation cephalosporins alone and in association with the compounds (ratio 1/4) for clinical bacteria. CTX, cefotaxime and CAZ, ceftazidime. ^1, AmpC-overproducing bacteria; ^2, CTX-M-14-producing E. coli; ^3, KPC-2-producing K. pneumoniae; ^4, OXA-48-producing K. pneumoniae; ^5, NDM-1-producing C. freundii.

[2] = test system: E. coli 142, AmpC-overproducing; assay: as above; type: cell-based, Escherichia coli; conditions: antibiotic alone
Procedure: as §1, §2, §3

[3] = test system: E. coli 145, AmpC-overproducing; assay: as above; type: cell-based, Escherichia coli; conditions: antibiotic alone
Procedure: as §1, §2, §3

[4] = test system: E. coli, AmpC-overproducing; assay: as above; type: cell-based, Escherichia coli; conditions: antibiotic alone
Procedure: as §1, §2, §3

[5] = test system: CTX-M-14-producing E. coli; assay: as above; type: cell-based, Escherichia coli; conditions: antibiotic alone
Procedure: as §1, §2, §3

[6] = test system: E. coli 146, AmpC-overproducing; assay: as above; type: cell-based, Escherichia coli; conditions: antibiotic alone
Procedure: as §1, §2, §3

[7] = test system: E. coli R1, AmpC-overproducing; assay: as above; type: cell-based, Escherichia coli; conditions: antibiotic alone
Procedure: as §1, §2, §3

[8] = test system: C. freundii overproducing chromosomally-mediated class C β-lactamase; assay: MIC of third-generation cephalosporins alone and with compounds 4 or 9 (Table 3); type: cell-based, Citrobacter freundii; conditions: antibiotic alone
Source text: (§4) Antimicrobial activity was investigated quantitatively to determine the minimum inhibitory concentrations (MICs) of the β-lactam/inhibitor combination necessary to inhibit the bacterial growth (Table 3). The MICs of β-lactams alone against the strains corresponded to a high level of resistance according to Clinical and Laboratory Standards Institute (CLSI) standards. (Clinical and Laboratory Standards Institute, Performance standards for antimicrobial susceptibility testing, 20th Informational Supplement, M100-S20 2010) The compounds had no measurable antibiotic activity when used alone.
(§5) Susceptibility testing was performed and interpreted following the guidelines of CLSI. (Clinical and Laboratory Standards Institute, Performance standards for antimicrobial susceptibility testing, 20th Informational Supplement, M100-S20 2010) The compounds were dissolved in 50% DMSO, and dilutions were performed using Muller-Hinton medium. An adequate final concentration was obtained to determine the minimum inhibitory concentrations (MICs). The concentration of DMSO was maintained below 5%. The inhibitors were tested for synergy with the third-generation β-lactams ceftazidime and cefotaxime against several clinical bacteria. […] Each value reported reflects the average of three independent experiments. […] A Klebsiella pneumoniae isolate produced the inducible plasmid-mediated class C enzyme DHA-1. The Friedman's test and the Wilcoxon signed rank test were used to compare MIC values. Statistical significance was established at p<0.05.

[9] = test system: E. coli overproducing chromosomally-mediated class C β-lactamase; assay: as above; type: cell-based, Escherichia coli; conditions: antibiotic alone
Source text: as §4, §5

[10] = test system: K. pneumoniae producing the plasmid-mediated class C β-lactamase DHA-1; assay: as above; type: cell-based, Klebsiella pneumoniae; conditions: antibiotic alone
Source text: as §4, §5

[11] = test system: K. pneumoniae, AmpC-overproducing; assay: MIC of third-generation cephalosporins alone and with compounds (Table 6); type: cell-based, Klebsiella pneumoniae; conditions: antibiotic alone
Procedure: as §1, §2, §3

[12] = test system: OXA-48-producing K. pneumoniae; assay: as above; type: cell-based, Klebsiella pneumoniae; conditions: antibiotic alone
Procedure: as §1, §2, §3

[13] = test system: E. cloacae overproducing chromosomally-mediated class C β-lactamase; assay: MIC of third-generation cephalosporins alone and with compounds 4 or 9 (Table 3); type: cell-based, Enterobacter cloacae; conditions: antibiotic alone
Source text: as §4, §5

[14] = test system: hospital-derived strain of E. coli that overproduces AmpC; assay: MIC for the strain used in the mouse model; type: cell-based; conditions: Escherichia coli
[15] = test system: P. aeruginosa overproducing chromosomally-mediated class C β-lactamase; assay: MIC of third-generation cephalosporins alone and with compounds 4 or 9 (Table 3); type: cell-based, Pseudomonas aeruginosa; conditions: antibiotic alone
Source text: as §4, §5

In the case of `CO/N=C(\C(=O)N[C@@H]1C(=O)N2C(C(=O)O)=C(COC(C)=O)CS[C@H]12)c1csc(N)n1` [Cefotaxime], the “MIC, cephalosporin alone” value [1] is reported as 16 µg/mL, the “MIC, cephalosporin alone” value [2] is reported as 4 µg/mL and the “MIC, cephalosporin alone” value [3] is reported as 16 µg/mL. The “MIC, cephalosporin alone” value [4] was 8 µg/mL, the “MIC, cephalosporin alone” value [5] was 256 µg/mL and the “MIC, cephalosporin alone” value [6] was 8 µg/mL. The “MIC, cephalosporin alone” value [7] was 4 µg/mL, the “MIC, cephalosporin alone” value [8] was 16 µg/mL and the “MIC, cephalosporin alone” value [9] was 8 µg/mL. For the same compound, the “MIC, cephalosporin alone” value [10] was 8 µg/mL, the “MIC, cephalosporin alone” value [11] was 8 µg/mL and the “MIC, cephalosporin alone” value [12] was 256 µg/mL. For the same compound, the “MIC, cephalosporin alone” value [13] was 64 µg/mL, the MIC [14] was 32 µg/mL (≈ 70.3 µM) and the “MIC, cephalosporin alone” value [15] was greater than 128 µg/mL.
